In article PMC10269819, “Mitochondrial ADP/ATP Carrier 1 Is Important for the Growth of Toxoplasma Tachyzoites” (Microbiology Spectrum, 2023):

Key:
Assay type in all cases: cell-based
TgAAC1 [1] = target: T1, TgAAC1 (Toxoplasma gondii, UniProt Q9BJ36); experiment: competition with [α-32P]ATP uptake by intact induced E. coli cells; details: unlabelled competitor 2.5 μM (100-fold excess); 25 nM [α-32P]ATP; 10 min; 50 mM potassium phosphate pH 7.0; 30 °C
T1 construct: full-length cDNA (318 residues) in pET-16b, HA-tagged; expressed in membrane of intact E. coli BL21(DE3)
T1 sequence (Q9BJ36 1-318): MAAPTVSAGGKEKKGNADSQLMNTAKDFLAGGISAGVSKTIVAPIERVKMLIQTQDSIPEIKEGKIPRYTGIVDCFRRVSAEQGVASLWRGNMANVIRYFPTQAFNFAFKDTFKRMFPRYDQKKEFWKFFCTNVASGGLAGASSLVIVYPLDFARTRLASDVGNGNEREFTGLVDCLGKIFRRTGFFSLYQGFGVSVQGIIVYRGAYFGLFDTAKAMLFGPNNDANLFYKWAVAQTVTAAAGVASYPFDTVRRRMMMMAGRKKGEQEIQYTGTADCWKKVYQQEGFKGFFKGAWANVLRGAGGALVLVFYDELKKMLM

TgAAC1 [2] = target: T1, TgAAC1; experiment: as above; details: unlabelled competitor 2.5 μM (100-fold excess); 25 nM [α-32P]ATP; 10 min; 50 mM potassium phosphate pH 7.0; 30 °C; remark: listed apart in the source
TgAAC1 [3] = target: T1, TgAAC1; experiment: uptake of [α-32P]ATP by intact induced E. coli cells; details: labelled compound; 25 nM [α-32P]ATP; 50 mM potassium phosphate pH 7.0; 30 °C; uninduced cells as control

**Q.** With `Nc1ncnc2c1ncn2[C@@H]1O[C@H](COP(=O)(O)O)[C@@H](O)[C@H]1O` [AMP] as the compound, how does the “% reduction of [α-32P]-ATP uptake at 2.5 μM” value (TgAAC1 [1]) read?
**A.** 40%

**Q.** For `Nc1ncnc2c1ncn2[C@@H]1O[C@H](COP(=O)(O)OP(=O)(O)O)[C@@H](O)[C@H]1O` [ADP], which “% reduction of [α-32P]-ATP transport at 2.5 μM” value (TgAAC1 [2]) is on record?
**A.** ~ approximately 90%

**Q.** How did the “uptake of [α-32P]ATP by intact induced E. coli cells” value (TgAAC1 [3]) turn out when `Nc1ncnc2c1ncn2[C@@H]1O[C@H](COP(=O)(O)OP(=O)(O)OP(=O)(O)O)[C@@H](O)[C@H]1O` [ATP] was run?
**A.** TgAAC1 could take up more ATP after induction compared to the noninduced group

**Q.** And the “% reduction of [α-32P]-ATP transport at 2.5 μM” value (TgAAC1 [2])?
**A.** ~ approximately 90%

**Q.** For `Nc1ccn([C@@H]2O[C@H](COP(=O)(O)OP(=O)(O)OP(=O)(O)O)[C@@H](O)[C@H]2O)c(=O)n1` [CTP], which “% reduction of [α-32P]-ATP uptake at 2.5 μM” value (TgAAC1 [1]) is on record?
**A.** 45%
